The target in series [1] is T1, frataxin (Homo sapiens, UniProt Q16595).
T1 sequence (Q16595 42-210): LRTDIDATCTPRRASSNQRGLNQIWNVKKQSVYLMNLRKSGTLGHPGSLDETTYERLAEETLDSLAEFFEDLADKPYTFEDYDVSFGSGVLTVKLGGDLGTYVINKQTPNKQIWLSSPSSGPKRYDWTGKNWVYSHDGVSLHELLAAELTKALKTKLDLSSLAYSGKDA
The series can be described thus: Frataxin accumulation in HEK-293 Flp-In cells stably expressing frataxin 1-210 (WB, FACS). The following applies: HEK-293 Flp-In frataxin 1-210. The class given is cell-based. Also noted: HEK-293 Flp-In cells stably transfected with frataxin^1-210; expressed in transfected cells. As for the experimental part: (§1) Human embryonic kidney HEK-293 cells and Hela cells were maintained in DMEM supplemented with 10% FBS. HEK-293 were transfected with the calcium/phosphate precipitation method, using 20 μg total DNA (10 μg pIRES-frataxin and 10 μg HA-Ub, or corresponding empty vectors) on 10 cm dishes. Hela cells were transfected using Lipofectamine 2000 reagents (Invitrogen), according to manufacturer's instructions. Where indicated, the day after transfection, cells were treated for 16 h with 10 μM proteasome inhibitors, MG132 or Lactacystin, or 50 ng/ml DUB inhibitor Ubiquitin-Aldehyde. Flp-In-HEK-293 cells (Invitrogen) are HEK-293 variants allowing the stable and isogenic integration and expression of a transfected gene. Flp-In-HEK-293 cells were maintained in DMEM supplemented with 10% FBS and transfected with the calcium/phosphate precipitation method. Briefly, cells were plated on 10 cm dishes and transfected with 10 μg total DNA. The HEK-293 clone stably expressing frataxin^1-210 was previously described (4). The HEK-293 clone stably expressing frataxin^K147R was obtained from cultures in selection medium containing 100 μg/ml hygromycin B (Invitrogen). FRDA lymphoblasts GM15850, GM16798 and GM16241, as well control lymphoblasts GM15851, GM16241 and GM16215, were maintained in RPMI supplemented with 15% FBS. Treatments with specific ubiquitin-competing molecules were performed in 20% FBS containing medium. FRDA fibroblasts GM03816 were maintained in DMEM supplemented with 15% FBS.
(§2) Cell extracts were prepared in modified RIPA buffer (10 mM sodium phosphate pH7.2, 150 mM NaCl, 1% Na deoxycholate, 0.1% SDS, 1% Np40, 2 mM EDTA) or IP buffer (50 mM Tris-HCl, pH 7.5, 150 mM NaCl, 1% Nonidet P-40, 5 mM EDTA, 5 mM EGTA) supplemented with Complete protease inhibitor cocktail and 2 mM N-Ethylmaleimide (NEM). For immunoblotting, 100 μg of protein extract were separated on 12% SDS-PAGE, blotted onto nitrocellulose membrane and detected with specific antibodies. For in vivo detection of ubiquitin-conjugates […] and 50 ng/ml Ubiquitin-Aldehyde were added to the lysis buffer. For immunoprecipitation, 5 mg of total protein extract prepared as above were incubated for 1-2 h at 4° C. with specific antibodies, previously conjugated to Protein G-sepharose (GE Healthcare). Immunocomplexes were then resolved and analysed by SDS-PAGE. […] Densitometric analysis was performed using ImageJ software.
Cells were collected after the indicated treatments and fixed for 20 minutes in 4% paraformaldehyde at room temperature. Cells were then permeabilized and blocked in a blocking solution (3% FBS in PBS) containing 0.2% Triton, for 1 hour at room temperature. Cells were then incubated overnight at 4° C. with anti-frataxin monoclonal antibody (MAB-10485, Immunological Science) or anti-Bcl2 monoclonal antibody (sc-509, Santa Cruz) diluted 1:200 in blocking solution. Cells were then washed 3 times in PBS and incubated for 1 hour at room temperature with FITC-conjugated goat anti-mouse IgG/IgM (BD Bioscience Pharmingen) diluted 1:200 in blocking solution. After washing 3 times with PBS cells were analyzed by flow cytometry (Becton Dickinson).
HEK-293 Flp-In cells stably transfected with frataxin^1-210 were treated for the indicated times with 10 μM MG132. Total cell extracts were blotted as in A. One representative experiment out of four performed with similar results is shown in FIG. 18.
Formula III induces frataxin precursor accumulation. HEK-293 Flp-In cells stably expressing frataxin^1-210 were treated for the indicated days with 20 μM of Formula III or 10 μM MG132. Total cell extracts were resolved on SDS-PAGE and analyzed with anti-frataxin antibody, or anti-tubulin, as a loading control.
Formula III induces mature frataxin accumulation. HEK-293 Flp-In cells stably expressing frataxin^1-210 were treated and analyzed as in B. One representative experiment out of three performed with similar results is shown FIG. 5C. […]

For series [2], the target named is T1, frataxin. The series can be described thus: Frataxin ubiquitination in HEK-293 cells co-transfected with HA-Ub and frataxin 1-210 (IP/WB). The format is cell-based. On the set-up: HEK-293 cells transiently transfected with frataxin^1-210 and HA-tagged ubiquitin (HA-Ub); expressed in transfected cells; host or cells: HEK-293. As for the experimental part: as §1, with “The HEK-293 clone stably expressing frataxin^K147R was obtained from cultures in selection medium containing 100 μg/ml hygromycin B (Invitrogen). FRDA lymphoblasts GM15850, GM16798 and GM16241, as well control lymphoblasts GM15851, GM16241 and GM16215, were maintained in RPMI supplemented with 15% FBS. Treatments with specific ubiquitin-competing molecules were performed in 20% FBS containing medium. FRDA fibroblasts GM03816 were maintained in DMEM supplemented with 15% FBS.” left out
(§3) Cell extracts were prepared in modified RIPA buffer (10 mM sodium phosphate pH7.2, 150 mM NaCl, 1% Na deoxycholate, 0.1% SDS, 1% Np40, 2 mM EDTA) or IP buffer (50 mM Tris-HCl, pH 7.5, 150 mM NaCl, 1% Nonidet P-40, 5 mM EDTA, 5 mM EGTA) supplemented with Complete protease inhibitor cocktail and 2 mM N-Ethylmaleimide (NEM). For immunoblotting, 100 μg of protein extract were separated on 12% SDS-PAGE, blotted onto nitrocellulose membrane and detected with specific antibodies. […] Immunocomplexes were then resolved and analysed by SDS-PAGE. […]
FIG. 2A illustrates HEK-293 cells transiently transfected with frataxin^1-210 and HA-tagged ubiquitin (HA-Ub) (where indicated) were treated with 10 μM MG132 (MG) for 16 h. […] Total cell extracts (lanes 1-4) or anti-HA immunoprecipitates (lanes 5-8) were analyzed by WB with anti-frataxin antibody. […]
Formula III prevents frataxin ubiquitination. […] Total cell extracts (upper panel) or anti-HA immunoprecipitated proteins (lower panel) were detected with anti-frataxin antibody.

Series [3] has as its target T1, frataxin. The experiment in a line: Frataxin accumulation in FRDA lymphoblasts (FACS, SDS-PAGE/western blot). The class given is cell-based. Conditions: FRDA lymphoblasts GM15850; 50 μM; 6 days. As for the experimental part:
as §1, with “The HEK-293 clone stably expressing frataxin^K147R was obtained from cultures in selection medium containing 100 μg/ml hygromycin B (Invitrogen). FRDA lymphoblasts GM15850, GM16798 and GM16241, as well control lymphoblasts GM15851, GM16241 and GM16215, were maintained in RPMI supplemented with 15% FBS. Treatments with specific ubiquitin-competing molecules were performed in 20% FBS containing medium. FRDA fibroblasts GM03816 were maintained in DMEM supplemented with 15% FBS.” left out
as §3
Cells were collected after the indicated treatments and fixed for 20 minutes in 4% paraformaldehyde at room temperature. […] After washing 3 times with PBS cells were analyzed by flow cytometry (Becton Dickinson).
FRDA lymphoblasts GM15850 were cultured for 6 days in the presence of 50 μM Formula IV or Formula VI. Cells were then fixed, stained with anti-frataxin antibody or anti-Bcl2, as a control, and analyzed by flow cytometry. […]
In general terms: In western blotting, separated proteins are transferred to a membrane and probed.

The next series has as its system FRDA cells. The series can be described thus: Tolerability by FRDA cells. The format is cell-based, human. Conditions: among the different ubiquitin-competing molecules.
Series [4] concerns frataxin. The series can be described thus: Frataxin precursor accumulation in HeLa cells transiently transfected with frataxin 1-210 (immunoblot). The format is cell-based, human. Conditions: 10 μM proteasome inhibitor, 18 h. As for the experimental part:
Human embryonic kidney HEK-293 cells and Hela cells were maintained in DMEM supplemented with 10% FBS. HEK-293 were transfected with the calcium/phosphate precipitation method, using 20 μg total DNA (10 μg pIRES-frataxin and 10 μg HA-Ub, or corresponding empty vectors) on 10 cm dishes. Hela cells were transfected using Lipofectamine 2000 reagents (Invitrogen), according to manufacturer's instructions. […] Flp-In-HEK-293 cells (Invitrogen) are HEK-293 variants allowing the stable and isogenic integration and expression of a transfected gene. Flp-In-HEK-293 cells were maintained in DMEM supplemented with 10% FBS and transfected with the calcium/phosphate precipitation method. Briefly, cells were plated on 10 cm dishes and transfected with 10 μg total DNA. The HEK-293 clone stably expressing frataxin^1-210 was previously described (4). […]
as §3

The subject of the next series is frataxin precursor. The series can be described thus: Cycloheximide chase of frataxin precursor degradation in HEK-293 Flp-In cells. The format is cell-based, human. The following applies: 100 μg/ml cycloheximide, 10 μM MG132. As for the experimental part:
as §2
HEK-293 Flp-In cells stably transfected with frataxin^1-210 (FIG. 1E) or empty vector (FIG. 1G) were treated for the indicated times with 100 μg/ml cycloheximide (CHX) in the presence or absence of 10 μM MG132 (MG). […] One representative experiment out of five performed with similar results is shown. Pre: precursor, tub: tubulin.

Structures are written as SMILES. Where a SMILES comes first, the peptide text is derived from it. The star is where a group is joined. Cbz = O=C(OCc1ccccc1)* Where only a bound is given, the exact number is not on record here.

Consider `O=[N+]([O-])c1cc(/C=N/NS(=O)(=O)c2ccc(F)cc2)c(O)c([N+](=O)[O-])c1` [Formula III], for which the “accumulation of the frataxin precursor” value at frataxin [1] (20 μM, days, WB) is “substantial accumulation”. Besides, the “accumulation of mature frataxin” value on frataxin [1] (20 μM, over a longer time period, WB) is given as “substantial accumulation”. Besides, at frataxin [2] (HEK-293 co-transfected with HA-Ub and frataxin 1-210, 20 μM and 50 μM, revealed after 48 h), the “ubiquitination of frataxin 1-210” value was “efficiently prevents the ubiquitination”.

On to `O=[N+]([O-])c1cccc(/C=N/NS(=O)(=O)c2ccc(F)cc2)c1O` [Formula VI], for which the “frataxin accumulation by FACS analysis” value at frataxin [3] is reported as “discrete frataxin accumulation detectable in all cells”. The “tolerability by FRDA cells” value in the series with FRDA cells is on record as “best tolerated”. Besides, on frataxin [1] (100 μM, 18 hours), the “frataxin accumulation by WB and FACS analysis” value is recorded as “effective in inducing frataxin accumulation”.

Consider `CC(C)C[C@@H](C=O)NC(=O)[C@H](CC(C)C)NC(=O)[C@H](CC(C)C)NC(=O)OCc1ccccc1` [MG132] (Cbz-Leu-Leu-Leu-aldehyde), for which the “accumulation of frataxin precursor compared to untreated cells” value with frataxin [4] is “significantly higher amounts of precursor”. Moreover, in the series with frataxin precursor (HEK-293 Flp-In empty vector), the “degradation of the endogenous frataxin precursor” value was “prevents the degradation”. In the series on frataxin precursor (HEK-293 Flp-In frataxin 1-210), the “time-dependent degradation of the frataxin precursor” value is “blocked”. Also, on frataxin [1] (10 μM MG132, after 24 hrs), the “accumulation of mature frataxin” value was ~2.5 fold and the “accumulation of the frataxin precursor” value is given as > 15 fold. The “accumulation of mono-ubiquitinated frataxin” value at frataxin [2] (HEK-293 co-transfected with frataxin 1-210 and HA-Ub, 10 μM MG132, 16 h) is “allows the accumulation and detection of mono-ubiquitinated frataxin”. The “accumulation of poly-ubiquitinated frataxin” value on frataxin [2] (HEK-293 co-transfected with frataxin 1-210 and HA-Ub, 10 μM MG132, 16 h, frataxin IP, anti-Ub WB) is “allows the accumulation and detection also of poly-ubiquitinated frataxin”.

As to `CC(=O)N[C@@H](CSC(=O)[C@]1([C@@H](O)C(C)C)NC(=O)[C@H](C)[C@@H]1O)C(=O)O` [lactacystin], the “accumulation of frataxin precursor compared to untreated cells” value with frataxin [4] is “significantly higher amounts of precursor”.
